Measurements from a compilation of properties of binary mixtures (doi:10.1021/acs.iecr.1c02970).

Assay: xn = mol fraction of the nth substance listed
Details: 100 kPa

CC[n+]1ccn(C)c1.CS(=O)(=O)[O-] + O
Details | electrical conductivity [S/m] | speed of sound [m/s] | viscosity [mPa·s]
293.15 K, x1 = 0.002 | 0.693 | – | –
293.15 K, x1 = 0.0177 | – | – | 1.439
293.15 K, x1 = 0.0181 | – | 1596.2 | –
293.15 K, x1 = 0.028 | 4.07 | – | –
293.15 K, x1 = 0.0357 | – | – | 1.98
293.15 K, x1 = 0.0375 | – | 1686.1 | –
293.15 K, x1 = 0.0489 | 4.55 | – | –
293.15 K, x1 = 0.07 | 4.39 | – | –
293.15 K, x1 = 0.0749 | – | 1801.7 | –
293.15 K, x1 = 0.0945 | – | 1837.1 | –
293.15 K, x1 = 0.1089 | – | – | 5.395
293.15 K, x1 = 0.1122 | 3.62 | – | –
293.15 K, x1 = 0.113 | – | 1857.6 | –
293.15 K, x1 = 0.1833 | – | 1882.3 | –
293.15 K, x1 = 0.1848 | – | – | 10.55
293.15 K, x1 = 0.2034 | 2.29 | – | –
293.15 K, x1 = 0.2741 | – | 1871.1 | –
293.15 K, x1 = 0.3671 | – | 1850.8 | –
293.15 K, x1 = 0.3752 | 1.19 | – | –
293.15 K, x1 = 0.4263 | – | – | 34.52
293.15 K, x1 = 0.6064 | – | 1809.5 | –
293.15 K, x1 = 0.6951 | – | 1800.2 | –
293.15 K, x1 = 0.7708 | – | 1793 | –
293.15 K, x1 = 0.9157 | – | 1780.8 | –
293.15 K, x1 = 0.9339 | 0.201 | – | –
293.15 K, x1 = 0.9357 | – | – | 214.4
293.15 K, x2 = 0.0082 | – | 1779.6 | –
298.15 K, x1 = 0.0375 | – | 1686.1 | –
298.15 K, x1 = 0.056 | – | 1749 | –
298.15 K, x1 = 0.0749 | – | 1794.6 | –
298.15 K, x1 = 0.0945 | – | 1828.1 | –
298.15 K, x1 = 0.113 | – | 1847.4 | –
298.15 K, x1 = 0.2741 | – | 1859.1 | –
298.15 K, x1 = 0.3671 | – | 1839 | –
298.15 K, x1 = 0.489 | – | 1815.1 | –
298.15 K, x1 = 0.6064 | – | 1797 | –
298.15 K, x1 = 0.6951 | – | 1787.9 | –
298.15 K, x1 = 0.9157 | – | 1767.6 | –
298.15 K, x2 = 0.0082 | – | 1766.9 | –
303.15 K, x1 = 0.002 | 0.852 | – | –
303.15 K, x1 = 0.0165 | 4.03 | – | –
303.15 K, x1 = 0.0181 | – | 1607.4 | –
303.15 K, x1 = 0.028 | 5.09 | – | –
303.15 K, x1 = 0.0357 | – | – | 1.541
303.15 K, x1 = 0.0375 | – | 1685.5 | –
303.15 K, x1 = 0.0489 | 5.75 | – | –
303.15 K, x1 = 0.0674 | – | – | 2.309
303.15 K, x1 = 0.07 | 5.61 | – | –
303.15 K, x1 = 0.0749 | – | 1787.3 | –
303.15 K, x1 = 0.0945 | – | 1818.7 | –
303.15 K, x1 = 0.1089 | – | – | 3.994
303.15 K, x1 = 0.113 | – | 1837.3 | –
303.15 K, x1 = 0.1833 | – | 1859.5 | –
303.15 K, x1 = 0.1848 | – | – | 7.58
303.15 K, x1 = 0.2034 | 3.13 | – | –
303.15 K, x1 = 0.2741 | – | 1847.2 | –
303.15 K, x1 = 0.3671 | – | 1827.1 | –
303.15 K, x1 = 0.3752 | 1.67 | – | –
303.15 K, x1 = 0.4263 | – | – | 23.25
303.15 K, x1 = 0.489 | – | 1802.7 | –
303.15 K, x1 = 0.6951 | – | 1775.8 | –
303.15 K, x1 = 0.7708 | – | 1767.9 | –
303.15 K, x1 = 0.9157 | – | 1755.3 | –
303.15 K, x1 = 0.9339 | 0.351 | – | –
303.15 K, x2 = 0.0082 | – | 1754.4 | –
308.15 K, x1 = 0.0181 | – | 1611.3 | –
308.15 K, x1 = 0.0375 | – | 1684.1 | –
308.15 K, x1 = 0.056 | – | 1739.2 | –
308.15 K, x1 = 0.0749 | – | 1779.7 | –
308.15 K, x1 = 0.113 | – | 1827 | –
308.15 K, x1 = 0.1833 | – | 1848.4 | –
308.15 K, x1 = 0.2741 | – | 1835.3 | –
308.15 K, x1 = 0.3671 | – | 1815.2 | –
308.15 K, x1 = 0.489 | – | 1790.4 | –
308.15 K, x1 = 0.6951 | – | 1763.8 | –
308.15 K, x1 = 0.7708 | – | 1755.8 | –
308.15 K, x1 = 0.9157 | – | 1743.1 | –
308.15 K, x2 = 0.0082 | – | 1742.1 | –
313.15 K, x1 = 0.002 | 1.02 | – | –
313.15 K, x1 = 0.0165 | 4.87 | – | –
313.15 K, x1 = 0.0177 | – | – | 0.917
313.15 K, x1 = 0.0181 | – | 1614.1 | –
313.15 K, x1 = 0.028 | 6.18 | – | –
313.15 K, x1 = 0.0375 | – | 1682.2 | –
313.15 K, x1 = 0.0489 | 7.04 | – | –
313.15 K, x1 = 0.056 | – | 1733.8 | –
313.15 K, x1 = 0.0674 | – | – | 1.819
313.15 K, x1 = 0.07 | 6.95 | – | –
313.15 K, x1 = 0.0749 | – | 1771.7 | –
313.15 K, x1 = 0.0945 | – | 1799.6 | –
313.15 K, x1 = 0.1122 | 6 | – | –
313.15 K, x1 = 0.113 | – | 1816.6 | –
313.15 K, x1 = 0.1833 | – | 1836.9 | –
313.15 K, x1 = 0.1848 | – | – | 5.649
313.15 K, x1 = 0.2034 | 4.08 | – | –
313.15 K, x1 = 0.2741 | – | 1823.4 | –
313.15 K, x1 = 0.3671 | – | 1803.3 | –
313.15 K, x1 = 0.4263 | – | – | 16.5
313.15 K, x1 = 0.489 | – | 1778.5 | –
313.15 K, x1 = 0.6064 | – | 1760.4 | –
313.15 K, x1 = 0.6951 | – | 1751.7 | –
313.15 K, x1 = 0.7708 | – | 1743.9 | –
313.15 K, x1 = 0.9339 | 0.558 | – | –
313.15 K, x1 = 0.9357 | – | – | 68.4
313.15 K, x2 = 0.0082 | – | 1730 | –
